What all share (assay): relative viability (nuclei count vs DMSO), 5 days (fraction); higher = more cells survive
Compound in the test “OSI-027 + Luminespib”: COc1cccc2cc(-c3nc([C@H]4CC[C@H](C(=O)O)CC4)n4ncnc(N)c34)[nH]c12 [OSI-027] + CCNC(=O)c1noc(-c2cc(C(C)C)c(O)cc2O)c1-c1ccc(CN2CCOCC2)cc1 [Luminespib] (partner 0.01 µM)
A digest of the protocol: (§1)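 After 5 days of treatment, lung cancer cells in 1536-well plates were fixed and stained in a single step (final 0.05% Triton X-100, 1% formaldehyde, 1 ug/ml Hoechst) and their nuclei counted on 4× images. Treatment had been applied by pin tool the day after seeding as one drug alone or as a fixed anchor-drug dose with five library-drug doses (not always all listed) in √10 steps. Relative viability is the nuclei count of treated wells divided by that of vehicle wells, and values are medians of duplicate plates.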

Compound in the test “Vemurafenib + Linsitinib”: CCCS(=O)(=O)Nc1ccc(F)c(C(=O)c2c[nH]c3ncc(-c4ccc(Cl)cc4)cc23)c1F [Vemurafenib] + C[C@]1(O)C[C@@H](c2nc(-c3ccc4ccc(-c5ccccc5)nc4c3)c3c(N)nccn32)C1 [Linsitinib] (partner 1 µM)
A digest of the protocol:
as §1

Compound in the test “Alpelisib + Pictilisib”: Cc1nc(NC(=O)N2CCC[C@H]2C(N)=O)sc1-c1ccnc(C(C)(C)C(F)(F)F)c1 [Alpelisib] + CS(=O)(=O)N1CCN(Cc2cc3nc(-c4cccc5[nH]ncc45)nc(N4CCOCC4)c3s2)CC1 [Pictilisib] (partner 1 µM)
A digest of the protocol:
as §1

Compound in the test “Vemurafenib + Navitoclax”: CCCS(=O)(=O)Nc1ccc(F)c(C(=O)c2c[nH]c3ncc(-c4ccc(Cl)cc4)cc23)c1F [Vemurafenib] + CC1(C)CCC(c2ccc(Cl)cc2)=C(CN2CCN(c3ccc(C(=O)NS(=O)(=O)c4ccc(N[C@H](CCN5CCOCC5)CSc5ccccc5)c(S(=O)(=O)C(F)(F)F)c4)cc3)CC2)C1 [Navitoclax] (partner 0.5 µM)
The method in brief: as §1

For the cell line UMC-11, the relative viability is 1.04 with OSI-027 + Luminespib (first compound 0.01 µM); 0.949 with OSI-027 + Luminespib (first compound 0.03162 µM); 0.783 in the test with OSI-027 + Luminespib (first compound 0.1 µM); 0.637 with OSI-027 + Luminespib (first compound 0.3162 µM); 0.551 with OSI-027 + Luminespib (first compound 1 µM); 0.945 in the test with Vemurafenib + Linsitinib (first compound 0.03162 µM). The relative viability with Vemurafenib + Linsitinib (first compound 0.1 µM) was found to be 0.989; with Vemurafenib + Linsitinib (first compound 0.3162 µM), 1.06; in the test with Vemurafenib + Linsitinib (first compound 1 µM) it was 0.949; with Alpelisib + Pictilisib (first compound 0.04 µM) it was 0.832; with Alpelisib + Pictilisib (first compound 0.1265 µM), 0.883; in the test with Alpelisib + Pictilisib (first compound 0.4 µM), 0.877. Also, the relative viability stood at 0.922 with Alpelisib + Pictilisib (first compound 1.265 µM); 0.772 with Alpelisib + Pictilisib (first compound 4 µM); 0.336 in the test with Vemurafenib + Navitoclax (first compound 0.03162 µM); 0.327 with Vemurafenib + Navitoclax (first compound 0.1 µM); 0.374 with Vemurafenib + Navitoclax (first compound 0.3162 µM); 0.319 with Vemurafenib + Navitoclax (first compound 1 µM).
